Laboratory results as given in US12054494B2, “Compound with anticancer activity” (KYOWA KIRIN CO., LTD., priority 2018, dated 2024).

Test system: SU-DHL-4 cells
Test: Inhibitory effect on cell viability (Cell Counting Kit-8)
Format: cell-based
Settings: Homo sapiens, 72 hours culture with test compound, concentration showing 90% inhibition rate of cell viability
How it was run: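 SU-DHL-4 cells (2000/well, RPMI1640 with 10% FBS) precultured 18-25 h, then exposed to a 9-step compound dilution series (0.1% DMSO final) for 72 h at 37° C. Viability by CCK-8 absorbance at 450 nm after 2-3 h; IC90 computed from inhibition rate relative to untreated and cell-free wells.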

Compound | IC90
Cc1sc2c(c1C)C(c1ccc(C(=O)NCCCNC(=O)c3ccc(C4=N[C@@H](CC(=O)OC(C)(C)C)c5nnc(C)n5-c5sc(C)c(C)c54)cc3)cc1)=N[C@@H](CC(=O)OC(C)(C)C)c1nnc(C)n1-2 [Compound 1b, Di-tert-butyl 2,2′-[(6S,6′S)-({[propane-1,3-diylbis(azanediyl)]bis(carbonyl)}bis(4,1-phenylene))bis(2,3,9-trimethyl-6H-thieno[3,2-f][1,2,4]triazolo[4,3-a][1,4]diazepine-4,6-diyl)]diacetate] | 1.78 nM
CCC(=O)N1c2ccccc2[C@H](Nc2ccc(C(=O)N3CC4CC3CN4C(=O)c3ccc(N[C@@H]4C[C@H](C)N(C(=O)CC)c5ccccc54)cc3)cc2)C[C@@H]1C [Compound 1k, 1,1′-{(2S,2′S,4R,4′R)-{[(2,5-Diazabicyclo[2.2.1]heptane-2,5-dicarbonyl)bis(4,1-phenylene)]bis(azanediyl)}bis[2-methyl-3,4-dihydroquinoline-4,1(2H)-diyl]}bis(propan-1-one)] | 0.55 nM
CCC(=O)N1c2ccccc2[C@H](Nc2ccc(C(=O)NCC(=O)CNC(=O)c3ccc(N[C@@H]4C[C@H](C)N(C(=O)CC)c5ccccc54)cc3)cc2)C[C@@H]1C [Compound 1l, N,N′-(2-Oxopropane-1,3-diyl)bis(4-{[(2S,4R)-2-methyl-1-propionyl-1,2,3,4-tetrahydroquinolin-4-yl]amino}benzamide)] | 0.04 nM
CCC(=O)N1c2ccccc2[C@H](Nc2ccc(C(=O)NC3CCN(C(=O)c4ccc(C5=NCc6nnc(C)n6-c6sc(C)c(C)c65)cc4)CC3)cc2)C[C@@H]1C [Compound 1m, 4-{[(2S,4R)-2-Methyl-1-propionyl-1,2,3,4-tetrahydroquinolin-4-yl]amino}-N-{1-[4-(2,3,9-trimethyl-6H-thieno[3,2-f][1,2,4]triazolo[4,3-a][1,4]diazepin-4-yl)benzoyl]piperidin-4-yl}benzamide] | 0.53 nM
CCC(=O)N1c2ccccc2[C@H](Nc2ccc(C(=O)N3CC(NC(=O)c4ccc(C5=N[C@@H](CC(=O)OC(C)(C)C)c6nnc(C)n6-c6sc(C)c(C)c65)cc4)C3)cc2)C[C@@H]1C [Compound 1n, tert-Butyl 2-[(S)-2,3,9-trimethyl-4-(4-{[1-(4-{[(2S,4R)-2-methyl-1-propionyl-1,2,3,4-tetrahydroquinolin-4-yl]amino}benzoyl)azetidin-3-yl]carbamoyl}phenyl)-6H-thieno[3,2-f][1,2,4]triazolo[4,3-a][1,4]diazepin-6-yl]acetate] | 0.49 nM
CCC(=O)N1c2ccccc2[C@H](Nc2ccc(C(=O)NCc3cn(-c4ccc(N[C@@H]5C[C@H](C)N(C(=O)CC)c6ccccc65)cc4)nn3)cc2)C[C@@H]1C [Compound 3a, 4-{[(2S,4R)-2-Methyl-1-propionyl-1,2,3,4-tetrahydroquinolin-4-yl]amino}-N-{[1-(4-{[(2S,4R)-2-methyl-1-propionyl-1,2,3,4-tetrahydroquinolin-4-yl]amino}phenyl)-1H-1,2,3-triazol-4-yl]methyl}benzamide] | 0.04 nM
CCC(=O)N1c2ccccc2[C@H](Nc2ccc(C(=O)NCc3nnc(-c4ccc(N[C@@H]5C[C@H](C)N(C(=O)CC)c6ccccc65)cc4)o3)cc2)C[C@@H]1C [Compound 3c, 4-{[(2S,4R)-2-Methyl-1-propionyl-1,2,3,4-tetrahydroquinolin-4-yl]amino}-N-{[5-(4-{[(2S,4R)-2-methyl-1-propionyl-1,2,3,4-tetrahydroquinolin-4-yl]amino}phenyl)-1,3,4-oxadiazol-2-yl]methyl}benzamide] | 0.11 nM
CCC(=O)N1c2ccccc2[C@H](Nc2ccc(C(=O)NCc3noc(-c4ccc(N[C@@H]5C[C@H](C)N(C(=O)CC)c6ccccc65)cc4)n3)cc2)C[C@@H]1C [Compound 3d, 4-{[(2S,4R)-2-Methyl-1-propionyl-1,2,3,4-tetrahydroquinolin-4-yl]amino}-N-{[5-(4-{[(2S,4R)-2-methyl-1-propionyl-1,2,3,4-tetrahydroquinolin-4-yl]amino}phenyl)-1,2,4-oxadiazol-3-yl]methyl}benzamide] | 0.11 nM

Continued, values first:

IC90 | Compound
26.3 nM | CCC(=O)N1c2ccccc2[C@H](Nc2ccc(NC(=O)CCCC(=O)Nc3ccc(N[C@@H]4C[C@H](C)N(C(=O)CC)c5cc(/C=C/CN)ccc54)cc3)cc2)C[C@@H]1C (relative stereo) [Compound 10t, N^1-(4-(((2S*,4R*)-7-((E)-3-Aminoprop-1-en-1-yl)-2-methyl-1-propionyl-1,2,3,4-tetrahydroquinolin-4-yl)amino)phenyl)-N^5-(4-(((2S,4R)-2-methyl-1-propionyl-1,2,3,4-tetrahydroquinolin-4-yl)amino)phenyl)glutaramide]
15.9 nM | CCC(=O)N1c2ccccc2[C@H](Nc2ccc(NC(=O)CCCC(=O)Nc3ccc(N[C@@H]4C[C@H](C)N(C(=O)CC)c5cc(C6=CCNCC6)ccc54)cc3)cc2)C[C@@H]1C (relative stereo) [Compound 10u, N^1-(4-(((2S,4R)-2-Methyl-1-propionyl-1,2,3,4-tetrahydroquinolin-4-yl)amino)phenyl)-N^5-(4-(((2S*,4R*)-2-methyl-1-propionyl-7-(1,2,3,6-tetrahydropyridin-4-yl)-1,2,3,4-tetrahydroquinolin-4-yl)amino)phenyl)glutaramide]
34.9 nM | CCC(=O)N1c2ccccc2[C@H](NCCCC2CCN(C(=O)Nc3ccc(N[C@@H]4C[C@H](C)N(C(=O)CC)c5ccccc54)cc3)CC2)C[C@@H]1C (relative stereo) [Compound 12d, N-(4-(((2S,4R)-2-Methyl-1-propionyl-1,2,3,4-tetrahydroquinolin-4-yl)amino)phenyl)-4-(3-(((2S*,4R*)-2-methyl-1-propionyl-1,2,3,4-tetrahydroquinolin-4-yl)amino)propyl)piperidine-1-carboxamide]
73.7 nM | CCC(=O)N1c2ccccc2[C@H](NCCOCCOCc2cn(-c3ccc(N[C@@H]4C[C@H](C)N(C(=O)CC)c5ccccc54)cc3)nn2)C[C@@H]1C (relative stereo) [Compound 12e, 1-((2S*,4R*)-2-Methyl-4-((2-(2-((1-(4-(((2S,4R)-2-methyl-1-propionyl-1,2,3,4-tetrahydroquinolin-4-yl)amino)phenyl)-1H-1,2,3-triazol-4-yl)methoxy)ethoxy)ethyl)amino)-3,4-dihydroquinolin-1(2H)-yl)propan-1-one]
31.1 nM | CCC(=O)N1c2ccccc2[C@H](NCCCCCCCCC(=O)Nc2ccc(N[C@@H]3C[C@H](C)N(C(=O)CC)c4ccccc43)cc2)C[C@@H]1C (relative stereo) [Compound 12g, 9-(((2S*,4R*)-2-Methyl-1-propionyl-1,2,3,4-tetrahydroquinolin-4-yl)amino)-N-(4-(((2S,4R)-2-methyl-1-propionyl-1,2,3,4-tetrahydroquinolin-4-yl)amino)phenyl)nonanamide]
3.92 nM | CCC(=O)N1c2ccccc2[C@H](NCCCCCCCC(=O)Nc2ccc(N[C@@H]3C[C@H](C)N(C(=O)CC)c4ccccc43)cc2)C[C@@H]1C (relative stereo) [Compound 12h, 8-(((2S*,4R*)-2-Methyl-1-propionyl-1,2,3,4-tetrahydroquinolin-4-yl)amino)-N-(4-(((2S,4R)-2-methyl-1-propionyl-1,2,3,4-tetrahydroquinolin-4-yl)amino)phenyl)octanamide]
3.68 nM | CCC(=O)N1c2ccccc2[C@H](NCCCC(=O)NCCn2cc(-c3ccc(N[C@@H]4C[C@H](C)N(C(=O)CC)c5ccccc54)cc3)cn2)C[C@@H]1C (relative stereo) [Compound 12i, 4-(((2S*,4R*)-2-Methyl-1-propionyl-1,2,3,4-tetrahydroquinolin-4-yl)amino)-N-(2-(4-(4-(((2S,4R)-2-methyl-1-propionyl-1,2,3,4-tetrahydroquinolin-4-yl)amino)phenyl)-1H-pyrazol-1-yl)ethyl)butanamide]
3.37 nM | CCC(=O)N1c2ccccc2[C@H](Nc2ccc(NC(=O)CCNC(=O)c3ccc(C4=N[C@@H](CC(=O)OC(C)(C)C)c5nnc(C)n5-c5sc(C)c(C)c54)cc3)cc2)C[C@@H]1C (relative stereo) [Compound 13i, tert-Butyl 2-((S)-2,3,9-trimethyl-4-(4-((3-((4-(((2S*,4R*)-2-methyl-1-propionyl-1,2,3,4-tetrahydroquinolin-4-yl)amino)phenyl)amino)-3-oxopropyl)carbamoyl)phenyl)-6H-thieno[3,2-f][1,2,4]triazolo[4,3-a][1,4]diazepin-6-yl)acetate]
1.17 nM | CCC(=O)N1c2ccccc2[C@H](Nc2ccc(NC(=O)CCCC(=O)Nc3ccc(C4=NCc5nnc(C)n5-c5sc(C)c(C)c54)cc3)cc2)C[C@@H]1C (relative stereo) [Compound 14t, N^1-(4-(((2S*,4R*)-2-Methyl-1-propionyl-1,2,3,4-tetrahydroquinolin-4-yl)amino)phenyl)-N^5-(4-(2,3,9-trimethyl-6H-thieno[3,2-f][1,2,4]triazolo[4,3-a][1,4]diazepin-4-yl)phenyl)glutaramide]
0.52 nM | CCC(=O)N1c2ccccc2[C@H](Nc2ccc(NC(=O)CNC(=O)C=C3CCC(N[C@@H]4C[C@H](C)N(C(=O)CC)c5ccccc54)CC3)cc2)C[C@@H]1C (relative stereo) [Compound 15j, 2-(4-(((2S*,4R*)-2-Methyl-1-propionyl-1,2,3,4-tetrahydroquinolin-4-yl)amino)cyclohexylidene)-N-(2-((4-(((2S,4R)-2-methyl-1-propionyl-1,2,3,4-tetrahydroquinolin-4-yl)amino)phenyl)amino)-2-oxoethyl)acetamide]
0.32 nM | CCC(=O)N1c2ccccc2[C@H](Nc2ccc(NC(=O)CNC(=O)C(F)=C3CCC(N[C@@H]4C[C@H](C)N(C(=O)CC)c5ccccc54)CC3)cc2)C[C@@H]1C (relative stereo) [Compound 15k, 2-Fluoro-2-(4-(((2S*,4R*)-2-methyl-1-propionyl-1,2,3,4-tetrahydroquinolin-4-yl)amino)cyclohexylidene)-N-(2-((4-(((2S,4R)-2-methyl-1-propionyl-1,2,3,4-tetrahydroquinolin-4-yl)amino)phenyl)amino)-2-oxoethyl)acetamide]
